# Data from PubChem BioAssay (NCI).
#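 Values below derive from 48-hour exposures of cells grown in 96-well plates, with endpoints linearly interpolated between the two concentrations bracketing the appropriate inhibition level. The concentration for full growth arrest is given as TGI.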
# System: SK-MEL-2 melanoma
# Assay: inhibition of tumour cell growth, NCI panel, 48 h
row,SMILES,TGI
1,CC(C)[C@@H](C)CC[C@@H](C)C1CC=C2[C@@H]3CCC4C[C@@H](O[Si](C)(C)C(C)(C)C)CC[C@]4(C)C3CC[C@@]21C (some centres not stated),> 100 µM
2,COc1ccc(SS(=O)(=O)c2ccc(OC)cc2)cc1,87.5 µM
3,Cn1ccnc1CCc1ccc(Cl)cc1Cl,> 100 µM

# System: SK-MEL-28 melanoma
# Assay: inhibition of tumour cell growth, NCI panel, 48 h
row,SMILES,TGI
1,Nc1ncnc2c1ncn2C1OC(CSC(F)F)C(O)C1O (configuration not stated),> 100 µM
2,CC(C)[C@@H](C)CC[C@@H](C)C1CC=C2[C@@H]3CCC4C[C@@H](O[Si](C)(C)C(C)(C)C)CC[C@]4(C)C3CC[C@@]21C (some centres not stated),> 100 µM
3,COc1ccc(SS(=O)(=O)c2ccc(OC)cc2)cc1,40.1 µM
4,O=C(Nc1nc(=S)[nH][nH]1)C(=O)C1C(=O)Nc2ccccc2S1=O (configuration not stated),> 100 µM
5,Cn1ccnc1CCc1ccc(Cl)cc1Cl,> 100 µM

# System: SK-MEL-5 melanoma
# Assay: inhibition of tumour cell growth, NCI panel, 48 h
row,SMILES,TGI
1,Nc1ncnc2c1ncn2C1OC(CSC(F)F)C(O)C1O (configuration not stated),> 100 µM
2,CC(C)[C@@H](C)CC[C@@H](C)C1CC=C2[C@@H]3CCC4C[C@@H](O[Si](C)(C)C(C)(C)C)CC[C@]4(C)C3CC[C@@]21C (some centres not stated),> 100 µM
3,COc1ccc(SS(=O)(=O)c2ccc(OC)cc2)cc1,33 µM
4,O=C(Nc1nc(=S)[nH][nH]1)C(=O)C1C(=O)Nc2ccccc2S1=O (configuration not stated),> 100 µM

# System: SK-OV-3 ovarian
# Assay: inhibition of tumour cell growth, NCI panel, 48 h
row,SMILES,TGI
1,Nc1ncnc2c1ncn2C1OC(CSC(F)F)C(O)C1O (configuration not stated),> 100 µM
2,CC(C)[C@@H](C)CC[C@@H](C)C1CC=C2[C@@H]3CCC4C[C@@H](O[Si](C)(C)C(C)(C)C)CC[C@]4(C)C3CC[C@@]21C (some centres not stated),> 100 µM
3,COc1ccc(SS(=O)(=O)c2ccc(OC)cc2)cc1,69.4 µM
4,O=C(Nc1nc(=S)[nH][nH]1)C(=O)C1C(=O)Nc2ccccc2S1=O (configuration not stated),> 100 µM
5,Cn1ccnc1CCc1ccc(Cl)cc1Cl,> 100 µM

# System: SN12C renal
# Assay: inhibition of tumour cell growth, NCI panel, 48 h
row,SMILES,TGI
1,Nc1ncnc2c1ncn2C1OC(CSC(F)F)C(O)C1O (configuration not stated),> 100 µM
2,CC(C)[C@@H](C)CC[C@@H](C)C1CC=C2[C@@H]3CCC4C[C@@H](O[Si](C)(C)C(C)(C)C)CC[C@]4(C)C3CC[C@@]21C (some centres not stated),> 100 µM
3,COc1ccc(SS(=O)(=O)c2ccc(OC)cc2)cc1,36.7 µM
4,O=C(Nc1nc(=S)[nH][nH]1)C(=O)C1C(=O)Nc2ccccc2S1=O (configuration not stated),> 100 µM
5,Cn1ccnc1CCc1ccc(Cl)cc1Cl,> 100 µM

# System: SNB-19 CNS
# Assay: inhibition of tumour cell growth, NCI panel, 48 h
row,SMILES,TGI
1,CC(C)[C@@H](C)CC[C@@H](C)C1CC=C2[C@@H]3CCC4C[C@@H](O[Si](C)(C)C(C)(C)C)CC[C@]4(C)C3CC[C@@]21C (some centres not stated),> 100 µM
2,COc1ccc(SS(=O)(=O)c2ccc(OC)cc2)cc1,65 µM
3,O=C(Nc1nc(=S)[nH][nH]1)C(=O)C1C(=O)Nc2ccccc2S1=O (configuration not stated),> 100 µM
4,Cn1ccnc1CCc1ccc(Cl)cc1Cl,> 100 µM

# System: SNB-75 CNS
# Assay: inhibition of tumour cell growth, NCI panel, 48 h
row,SMILES,TGI
1,Nc1ncnc2c1ncn2C1OC(CSC(F)F)C(O)C1O (configuration not stated),> 100 µM
2,CC(C)[C@@H](C)CC[C@@H](C)C1CC=C2[C@@H]3CCC4C[C@@H](O[Si](C)(C)C(C)(C)C)CC[C@]4(C)C3CC[C@@]21C (some centres not stated),> 100 µM
3,COc1ccc(SS(=O)(=O)c2ccc(OC)cc2)cc1,45.5 µM
4,O=C(Nc1nc(=S)[nH][nH]1)C(=O)C1C(=O)Nc2ccccc2S1=O (configuration not stated),> 100 µM
5,Cn1ccnc1CCc1ccc(Cl)cc1Cl,> 100 µM

# System: SNB-78 CNS
# Assay: inhibition of tumour cell growth, NCI panel, 48 h
row,SMILES,TGI
1,Nc1ncnc2c1ncn2C1OC(CSC(F)F)C(O)C1O (configuration not stated),> 100 µM
2,CC(C)[C@@H](C)CC[C@@H](C)C1CC=C2[C@@H]3CCC4C[C@@H](O[Si](C)(C)C(C)(C)C)CC[C@]4(C)C3CC[C@@]21C (some centres not stated),> 100 µM
3,COc1ccc(SS(=O)(=O)c2ccc(OC)cc2)cc1,> 100 µM
4,Cn1ccnc1CCc1ccc(Cl)cc1Cl,> 100 µM

# System: SR leukemia
# Assay: inhibition of tumour cell growth, NCI panel, 48 h
row,SMILES,TGI
1,CC(C)[C@@H](C)CC[C@@H](C)C1CC=C2[C@@H]3CCC4C[C@@H](O[Si](C)(C)C(C)(C)C)CC[C@]4(C)C3CC[C@@]21C (some centres not stated),> 100 µM
2,COc1ccc(SS(=O)(=O)c2ccc(OC)cc2)cc1,61.4 µM
3,O=C(Nc1nc(=S)[nH][nH]1)C(=O)C1C(=O)Nc2ccccc2S1=O (configuration not stated),> 100 µM

# System: SW-620 colon
# Assay: inhibition of tumour cell growth, NCI panel, 48 h
row,SMILES,TGI
1,Nc1ncnc2c1ncn2C1OC(CSC(F)F)C(O)C1O (configuration not stated),> 100 µM
2,CC(C)[C@@H](C)CC[C@@H](C)C1CC=C2[C@@H]3CCC4C[C@@H](O[Si](C)(C)C(C)(C)C)CC[C@]4(C)C3CC[C@@]21C (some centres not stated),> 100 µM
3,COc1ccc(SS(=O)(=O)c2ccc(OC)cc2)cc1,18.1 µM
4,O=C(Nc1nc(=S)[nH][nH]1)C(=O)C1C(=O)Nc2ccccc2S1=O (configuration not stated),> 100 µM
5,Cn1ccnc1CCc1ccc(Cl)cc1Cl,> 100 µM

# System: TK-10 renal
# Assay: inhibition of tumour cell growth, NCI panel, 48 h
row,SMILES,TGI
1,Nc1ncnc2c1ncn2C1OC(CSC(F)F)C(O)C1O (configuration not stated),> 100 µM
2,CC(C)[C@@H](C)CC[C@@H](C)C1CC=C2[C@@H]3CCC4C[C@@H](O[Si](C)(C)C(C)(C)C)CC[C@]4(C)C3CC[C@@]21C (some centres not stated),> 100 µM
3,COc1ccc(SS(=O)(=O)c2ccc(OC)cc2)cc1,50.2 µM
4,O=C(Nc1nc(=S)[nH][nH]1)C(=O)C1C(=O)Nc2ccccc2S1=O (configuration not stated),> 100 µM
5,Cn1ccnc1CCc1ccc(Cl)cc1Cl,> 100 µM

# System: U251 CNS
# Assay: inhibition of tumour cell growth, NCI panel, 48 h
row,SMILES,TGI
1,Nc1ncnc2c1ncn2C1OC(CSC(F)F)C(O)C1O (configuration not stated),> 100 µM
2,CC(C)[C@@H](C)CC[C@@H](C)C1CC=C2[C@@H]3CCC4C[C@@H](O[Si](C)(C)C(C)(C)C)CC[C@]4(C)C3CC[C@@]21C (some centres not stated),> 100 µM
3,COc1ccc(SS(=O)(=O)c2ccc(OC)cc2)cc1,27.6 µM
4,Cn1ccnc1CCc1ccc(Cl)cc1Cl,> 100 µM

# System: UACC-257 melanoma
# Assay: inhibition of tumour cell growth, NCI panel, 48 h
row,SMILES,TGI
1,Nc1ncnc2c1ncn2C1OC(CSC(F)F)C(O)C1O (configuration not stated),> 100 µM
2,CC(C)[C@@H](C)CC[C@@H](C)C1CC=C2[C@@H]3CCC4C[C@@H](O[Si](C)(C)C(C)(C)C)CC[C@]4(C)C3CC[C@@]21C (some centres not stated),> 100 µM
3,COc1ccc(SS(=O)(=O)c2ccc(OC)cc2)cc1,49.4 µM
4,O=C(Nc1nc(=S)[nH][nH]1)C(=O)C1C(=O)Nc2ccccc2S1=O (configuration not stated),> 100 µM
5,Cn1ccnc1CCc1ccc(Cl)cc1Cl,> 100 µM

# System: UACC-62 melanoma
# Assay: inhibition of tumour cell growth, NCI panel, 48 h
row,SMILES,TGI
1,Nc1ncnc2c1ncn2C1OC(CSC(F)F)C(O)C1O (configuration not stated),> 100 µM
2,CC(C)[C@@H](C)CC[C@@H](C)C1CC=C2[C@@H]3CCC4C[C@@H](O[Si](C)(C)C(C)(C)C)CC[C@]4(C)C3CC[C@@]21C (some centres not stated),> 100 µM
3,COc1ccc(SS(=O)(=O)c2ccc(OC)cc2)cc1,38.5 µM
4,O=C(Nc1nc(=S)[nH][nH]1)C(=O)C1C(=O)Nc2ccccc2S1=O (configuration not stated),> 100 µM
5,Cn1ccnc1CCc1ccc(Cl)cc1Cl,> 100 µM

# System: UO-31 renal
# Assay: inhibition of tumour cell growth, NCI panel, 48 h
row,SMILES,TGI
1,Nc1ncnc2c1ncn2C1OC(CSC(F)F)C(O)C1O (configuration not stated),> 100 µM
2,CC(C)[C@@H](C)CC[C@@H](C)C1CC=C2[C@@H]3CCC4C[C@@H](O[Si](C)(C)C(C)(C)C)CC[C@]4(C)C3CC[C@@]21C (some centres not stated),> 100 µM
3,COc1ccc(SS(=O)(=O)c2ccc(OC)cc2)cc1,27.2 µM
4,O=C(Nc1nc(=S)[nH][nH]1)C(=O)C1C(=O)Nc2ccccc2S1=O (configuration not stated),> 100 µM
5,Cn1ccnc1CCc1ccc(Cl)cc1Cl,> 100 µM
